Laboratory results: paper PMC6825215, “An anionic, endosome-escaping polymer to potentiate intracellular delivery of cationic peptides, biomacromolecules, and nanoparticles” (Nature Communications, 2019)
Like-named read-outs stand apart in the source and are kept apart here. Where no end group is shown, it is not given here.

Legend:
[1] = system: HCAVSMCs; assay: Inhibitor uptake studies; assay type: cell-based, human; conditions: for inhibition at 100 µM / inhibition at 0.1 µM: Homo sapiens; for effect of inhibitor during PPAA pretreatment only on subsequent YARA-MK2i peptide uptake: no inhibitor present during peptide treatment
[2] = system: Luciferase expressing A7r5 cells; assay: Luciferase gene-silencing assay; assay type: cell-based, rat; conditions: sequentially delivered 25 nM siRNA as peptide-siRNA polyplexes
Protocol: Luciferase expressing A7r5 cells were seeded in a black, clear bottom 96-well plate at a density of 10,000 cells/well in DMEM containing 10% FBS and 1% P/S and allowed to adhere overnight. D-DPB NPs, PepFect-siRNA polyplexes, and CADY-siRNA polyplexes were formulated and loaded with luciferase or scrambled siRNA as noted above. […] Luciferase gene silencing was calculated compared with cells treated with an equivalent dose of scrambled siRNA loaded into D-DPB NPs as a control.

[3] = system: HMVECs; assay: Vivo-morpholino colocalization with LysoTracker Red; assay type: cell-based, human; conditions: delivery with either 2.5 or 5 µM PPAA, 5 µM vivo-morpholino
Protocol: HMVECs were seeded into Lab-Tek II 8-well chambered coverslips at a density of 10,000 cells/well and incubated overnight. […] Lysotracker staining, imaging of cells, and image processing was carried out as noted above in the peptide endosomal escape experiment.

[4] = system: human coronary artery vascular smooth muscle cells (HCAVSMCs); assay: Flow cytometric uptake and retention of fluorescently labeled peptide; conditions: 5 µM Alexa-488 labeled peptide, mass ratios 3:1 to 1:20 peptide:polymer, 30 min, flow cytometry
Protocol: (§1) Cells were treated as defined in the following sections in Opti-MEM medium supplemented with 1% penicillin-streptomycin and 1% FBS. For all flow cytometry assays, following treatment or post-treatment incubation, cells were washed 2× in PBS without calcium or magnesium, harvested with 0.05% trypsin-EDTA, centrifuged, resuspended in 300 µL of 0.05% Trypan blue in PBS without calcium or magnesium, and transferred to a 96-well plate for analysis on an EMD Millipore Guava easyCyte™ 5HT flow cytometer with InCyte software for data acquisition. […] All samples were run in triplicate. All flow cytometric uptake data are presented as fold increase in peptide, vivo-morpholino, or nanoparticle uptake relative to treatment with an equivalent dose of the corresponding fluorescently labeled peptide, vivo-morpholino, or nanoparticle formulation alone. Absolute fluorescence data of peptide uptake is shown in the supplement (Supplementary Figs. 4 and 7).
(§2) Cells were then treated with each formulation for 30 min.
Cell culture medium containing the polymer treatment was then aspirated, and cells were subsequently treated with fluorescent peptide or vivo-morpholino alone for 30 min.
HCAVSMCs were seeded and treated for 30 min as noted above.

[5] = system: HEK 293-T LgBiT cells; assay: NanoLuc luciferase intracellular bioavailability assay; assay type: cell-based, human; conditions: sequential delivery of 5 µM PPAA followed by 0.5 or 1 µM YARA-HiBiT, 30 min each; 6 h incubation
Protocol: HEK 293-T LgBiT cells were seeded into a collagen-coated 96-well plate in DMEM with 10% FBS and 1% P/S and allowed to incubate for 24 h. […] The treatment was then removed and cells were incubated in 10% FBS media for 6 h. Prior to reading, the TECAN Infinite M1000 Pro plate reader was warmed to 37 °C. The cells were treated with 1 μM DrkBiT for 2 min, after which the NanoLuc substrate was added. The plate was immediately read on the plate reader in a kinetic luminescence cycle for 20 min. Peak luminescence data points were calculated by taking the average of the five readings at the peak of the kinetic curve.

[6] = system: HCAVSMCs, HMVECs, RAW 264.7, MCF7, and HEK 293T cells; assay: Polymer dose-dependent YARA-MK2i uptake in five cell types; conditions: co-delivery with 2–5 µM PPAA; all five cell lines; flow cytometry
Protocol: as §1, §2

[7] = read-out: inhibition of YARA-MK2i peptide uptake, co-delivery with 5 µM PPAA, inhibitor (100 nM wortmannin, 100 µM dynasore) 30 min pretreatment and throughout treatment
[8] = read-out: inhibition of YARA-MK2i peptide uptake, sequential delivery, 5 µM PPAA then peptide, inhibitor (100 nM wortmannin, 100 µM dynasore) 30 min pretreatment and throughout treatment

Compound: O=C(N/N=C/c1ccc(O)c(O)c1)c1cc2ccccc2cc1O [dynasore, Dynasore]
- effect on uptake of fluorescent PPAA polymer (without peptide) ([1]; 0-200 µM dynasore, 30 min pretreatment, rhodamine labeled PPAA): dose-dependently inhibited internalization
- inhibition at 100 µM [1, 7]: ~30%
- inhibition at 100 µM [1, 8]: ~44%
- effect of inhibitor during PPAA pretreatment only on subsequent YARA-MK2i peptide uptake [1]: dose-dependent increase in subsequent YARA-MK2i peptide internalization

Compound: COC[C@H]1OC(=O)c2coc3c2[C@@]1(C)C1=C(C3=O)[C@@H]2CCC(=O)[C@@]2(C)C[C@H]1OC(C)=O [wortmannin, Wortmannin]
- inhibition at 0.1 µM [1, 7]: ~69%
- inhibition at 0.1 µM [1, 8]: ~89%
- effect of inhibitor during PPAA pretreatment only on subsequent YARA-MK2i peptide uptake [1]: significantly reduced subsequent peptide uptake

Compound: Ac-GLWRALWRLLRSLWRLLWRA-cya (Ac-GLWRALWRLLRSLWRLLWRA-cysteamide) [CADY, secondary amphipathic CPP, nucleic acid delivery vector]
- effect of PPAA pretreatment on gene-silencing activity of siRNA polyplexes [2]: enhanced the gene-silencing activity

Compound: CD47 vivo-morpholino: phosphorodiamidite morpholino oligomer conjugated to a cationic octa-guanidine dendrimer; 5′-CGTCACAGGCAGGACCCACTGCCCA (all phosphorodiamidate morpholino (PMO); octa-guanidine dendrimer conjugated, position not given here, further chemistry not fully specified)
- colocalization with the endolysosomal dye LysoTracker Red [3]: significantly reduced CD47 vivo-morpholino colocalization

Compound: Dextran sulfate
- effect of inhibitor during PPAA pretreatment only on subsequent YARA-MK2i peptide uptake [1]: Neither methyl-β-cyclodextrin nor dextran sulfate addition during PPAA pretreatment had any effects on subsequent peptide uptake

Compound: GRKKRRQRRRPPQKALARQLGVAA [TAT-MK2i]
- effect of co-delivery with PPAA (pre-complexed NPs) on peptide uptake [4]: consistently increased peptide uptake

Compound: KLRKVSpK [VASP (no CPP)]
- effect of co-delivery with PPAA (pre-complexed NPs) on peptide uptake [4]: no polymer effect on uptake

Compound: Methyl-β-cyclodextrin
- effect of inhibitor during PPAA pretreatment only on subsequent YARA-MK2i peptide uptake [1]: Neither methyl-β-cyclodextrin nor dextran sulfate addition during PPAA pretreatment had any effects on subsequent peptide uptake

Compound: RQIKIWFQNRRMKWKKKALARQLGVAA [Penetratin-MK2i]
- effect of co-delivery with PPAA (pre-complexed NPs) on peptide uptake [4]: did not display significant PPAA-mediated enhancement of uptake with co-delivery

Compound: RRRRRRKALARQLGVAA [R6-MK2i]
- effect of co-delivery with PPAA (pre-complexed NPs) on peptide uptake [4]: consistently increased peptide uptake

Compound: Stearyl-AGYLLGKLLOOLAAAALOOLL [PepFect, stearylated, secondary amphipathic CPP, nucleic acid delivery vector]
- effect of PPAA pretreatment on gene-silencing activity of siRNA polyplexes [2]: enhanced the gene-silencing activity

Compound: YARAAARQARA-HiBiT [YARA-HiBiT, YARA CPP fused to the HiBiT peptide of the NanoLuc platform]
- intracellular delivery (NanoLuc luminescence) [5]: significantly enhanced intracellular delivery

Compound: YARAAARQARA-KLRKVSpK [YARA-VASP]
- effect of co-delivery with PPAA (pre-complexed NPs) on peptide uptake [4]: Very similar trends in PPAA dose-dependent uptake

Compound: YARAAARQARAKALARQLGVAA [YARA-MK2i]
- fold increase in uptake of the YARA-MK2i peptide [6]: 10–30 fold
